Assay results taken from publication PMC4685943 (ACS Chemical Biology, 2015).

Columns and labels:
[1] = test system: NCI-H2286 and HCC-366; experiment: Cell proliferation assays in DDR2 mutated cell lines; type: cell-based; conditions: NCI-H2286 and HCC-366, 5 days, single agent
[2] = target: T1, DDR2 (Homo sapiens, UniProt Q16832); experiment: DDR2 phosphorylation, IP/Western blot in 293T cells expressing wild type DDR2; type: cell-based; conditions: 293T cells expressing wild type DDR2, IP anti-DDR2 / blot 4G10
T1 sequence (Q16832 22-855): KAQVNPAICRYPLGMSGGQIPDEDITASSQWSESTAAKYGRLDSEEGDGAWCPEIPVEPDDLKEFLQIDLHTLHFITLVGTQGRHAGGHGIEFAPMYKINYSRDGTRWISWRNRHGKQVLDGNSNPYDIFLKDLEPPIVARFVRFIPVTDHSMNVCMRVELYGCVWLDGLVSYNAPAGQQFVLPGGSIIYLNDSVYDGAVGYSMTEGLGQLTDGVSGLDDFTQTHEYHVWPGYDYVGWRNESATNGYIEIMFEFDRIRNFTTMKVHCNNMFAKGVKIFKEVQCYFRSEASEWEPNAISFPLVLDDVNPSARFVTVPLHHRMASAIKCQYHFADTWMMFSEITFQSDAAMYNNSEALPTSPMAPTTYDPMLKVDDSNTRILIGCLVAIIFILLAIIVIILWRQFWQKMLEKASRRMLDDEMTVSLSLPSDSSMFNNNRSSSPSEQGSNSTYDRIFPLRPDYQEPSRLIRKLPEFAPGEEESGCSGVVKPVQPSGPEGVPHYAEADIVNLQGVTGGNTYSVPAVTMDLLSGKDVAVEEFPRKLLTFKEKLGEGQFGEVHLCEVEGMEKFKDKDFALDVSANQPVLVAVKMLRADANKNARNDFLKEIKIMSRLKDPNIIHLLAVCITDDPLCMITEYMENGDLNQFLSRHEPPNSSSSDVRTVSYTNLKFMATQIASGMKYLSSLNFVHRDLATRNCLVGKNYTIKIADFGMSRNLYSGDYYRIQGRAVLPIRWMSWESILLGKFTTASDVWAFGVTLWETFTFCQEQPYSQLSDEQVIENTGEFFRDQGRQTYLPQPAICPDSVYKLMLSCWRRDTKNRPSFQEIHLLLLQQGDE

Structure (SMILES)	antiproliferative potency in DDR2 mutated cell lines [1]	effect on p-DDR2 [2]
CN1CCN(CCOc2cc(OC3CCOCC3)c3c(Nc4c(Cl)ccc5c4OCO5)ncnc3c2)CC1 [Saracatinib]	greater inhibition of cell proliferation as compared to compound 1	
Cc1nc(Nc2ncc(C(=O)Nc3c(C)cccc3Cl)s2)cc(N2CCN(CCO)CC2)n1 [Dasatinib]		potent inhibition
